Measured values: patent publication US8691854B2, “Chemical compounds and the uses thereof as a medicine” (Trophos, priority 2005, dated 2014)

Tested on: primary neurones isolated from rat striatum expressing mutated huntingtin
Assay: Protection of striatum neurones in a death test induced by over-expression of a mutated form of huntingtin, GFP as reporter gene
Format: cell-based
Settings: 0.3 μM compound; survival of GFP-positive cells minus DMSO, relative to BDNF (5 ng/ml) minus DMSO; active when ratio larger than 0.2
Description: Evaluation of the Protection Provided by the Compound of Formula I on Striatum Neurones in a Death Test Induced by Over-Expression of a Mutated Form of Huntingtine by Using GFP as Reporter Gene
Primary cultures of striatum neurones are prepared as described in the literature (Mao L. et al., Methods Mol. Med., 2003, 79: 379-86).
Before sowing, an expression vector containing a promoter element followed by the DNA coding for a truncated form of huntingtin which comprises the first 480 amino acids and 68 CAG codons (Saudou et al., Cell, 1998, 95:55-66), purified beforehand, is introduced by electroporation according to the procedure described by Raoul et al., (Neuron, 2002, 35:1067-83).
A second expression vector, also purified beforehand, containing DNA coding for the green fluorescent protein (GFP) (Columbia University) is also electroporated and is used as a reporter gene.
The cells which survive electroporation are sown at a density of 4,000 cells per well on 96-well plates. The culture is achieved in 175 μl of Neurobasal medium (GIBCO) complemented with final 1 mM of pyruvate and with B-27 1/100 (Beckton Dickinson). The cells are maintained in the culture for 6 days without changing the medium.
[…] Positive controls are made by adding BDNF (Brain-Derived Neurotrophic Factor) at 5 ng/ml (Tebu) finally. The negative controls only receive 0.5% DMSO.
Cell death is evaluated after 7 days by counting the number of living cells expressing GFP.
The activity of the compounds to be tested was evaluated by their capability of preventing death of striatum neurones grown in the Neurobasal medium, as compared with survival of striatum neurones in a medium supplemented with BDNF.
The results are expressed as a ratio evaluating survival of positive GFP cells in the presence of the compound to be tested. This is therefore the number of living cells after treatment with the compound to be tested, reduced by the number of living cells after treatment with DMSO, based on (divided by) the number of survival cells after treatment with BDNF, reduced by the number of living cells after treatment with DMSO.
This ratio therefore represents the survival percentage due to the tested compound relatively to survival induced by BDNF.
In this test, a compound is considered as being active when said ratio is larger than 0.2 i.e. when it has a neuroprotective activity at least equal to 20% of the neuroprotective activity of BDNF.

Row | Compound | GFP ratio
1 | CS(=O)(=O)c1cccc(C=CC=NNc2nc(-c3ccc(C(F)(F)F)cc3)cs2)c1 [Example 24] | >0.2
2 | FC(F)(F)c1ccc(-c2csc(NN=CC=Cc3ccccn3)n2)cc1 [Example 26] | >0.2

Same assay, conditions: 1 μM compound; survival of GFP-positive cells minus DMSO, relative to BDNF (5 ng/ml) minus DMSO; active when ratio larger than 0.2

Row | Compound | GFP ratio
3 | Nc1cccc(C=CC=NNc2nc(-c3ccc(C(F)(F)F)cc3)cs2)c1 [Example 17] | >0.2
4 | O=[N+]([O-])c1cccc(C=CC=NNc2nc(-c3ccc(C(F)(F)F)cc3)cs2)c1 [Example 13] | >0.2
5 | CS(=O)(=O)c1cccc(C=CC=NNc2nc(-c3ccc(Cl)cc3)cs2)c1 [Example 18] | >0.2
6 | Clc1ccc(-c2csc(NN=CC=Cc3ccccn3)n2)cc1 [Example 25] | >0.2
7 | N#Cc1cccc(C=CC=NNc2nc(-c3ccc(Cl)cc3)cs2)c1 [Example 10] | >0.2
8 | FC(F)(F)c1ccc(-c2csc(NN=CC=Cc3ccc4c(c3)OCO4)n2)cc1 [Example 21] | >0.2
9 | Nc1cccc(C=CC=NNc2nc(-c3ccc(Cl)cc3)cs2)c1 [Example 14] | >0.2
10 | N#Cc1cccc(C=CC=NNc2nc(-c3ccc(C(F)(F)F)cc3)cs2)c1 [Example 11] | >0.2
11 | Fc1ccccc1C=CC=NNc1nc(-c2ccc(Cl)cc2)cs1 [Example 1] | >0.2

Same assay, conditions: 3 μM compound; survival of GFP-positive cells minus DMSO, relative to BDNF (5 ng/ml) minus DMSO; active when ratio larger than 0.2

Row | Compound | GFP ratio
12 | COc1cc(Cl)ccc1-c1csc(NN=CC=Cc2ccccc2)n1 [Example 22] | >0.2
13 | N#Cc1cccc(C=CC=NNc2nc(-c3cccc(O)c3)cs2)c1 [Example 19] | >0.2
14 | COc1ccccc1C=CC=NNc1nc(-c2ccc(Cl)cc2)cs1 [Example 3] | >0.2
15 | Oc1cccc(-c2csc(NN=CC=Cc3ccccc3)n2)c1 [Example 7] | >0.2
16 | 3-(3-nitrophenyl)-2-propenal-[4-(4-chlorophenyl-2-thiazolyl)hydrazone [Example 2] | >0.2
17 | FC(F)(F)c1ccc(-c2csc(NN=CC=Cc3ccncc3)n2)cc1 [Example 16] | >0.2
18 | Fc1ccc(C=CC=NNc2nc(-c3ccc(C(F)(F)F)cc3)cs2)cc1 [Example 29] | >0.2
19 | Cc1ccccc1C=CC=NNc1nc(-c2ccc(Cl)cc2)cs1 [Example 9] | >0.2

Same assay, conditions: 10 μM compound; survival of GFP-positive cells minus DMSO, relative to BDNF (5 ng/ml) minus DMSO; active when ratio larger than 0.2

Row | Compound | GFP ratio
20 | 3-(2-chlorophenyl)-2-propenal-[4-(4-chlorophenyl-2-thiazolyl)hydrazone [Example 12] | >0.2
21 | Clc1ccc(-c2csc(NN=CC=Cc3ccncc3)n2)cc1 [Example 8] | >0.2
22 | COc1cccc(C=CC=NNc2nc(-c3ccc(Cl)cc3)cs2)c1 [Example 6] | >0.2
